The structures appear in SMILES notation.

This note sets out measurements from patent US20110251135A1, “INHIBITORS OF PERITONEAL SEEDING OF CANCER CELLS” (University of Utah Research Foundation, priority 2008, published 2011).

In assay [1] the test system is HCT-116 xenografts. Kind of assay: Subcutaneous colon cancer xenograft in athymic mice. It is filed as in vivo, mouse. The settings on record: HCT-116 subcutaneous xenografts; BAY 11-7085 1 mg/kg twice weekly for 28 days vs DMSO. The protocol:
(§1) DLD-1, HCT-116, and HT-29 cells were cultured for 6 days in soft agar in the presence of DMSO (control), 10 μM BAY 11-7082, or 10 μM BAY 11-7085. The data points represent the means of colony counts per field (20×) performed in 5 different regions of the culture dishes. The data shown represent a typical result of two separate experiments. FIG. 2B and FIG. 2C are graphs that show athymic mice received subcutaneous injections of HT-29 (FIG. B) or HCT-116 (FIG. C) cells, followed by […] of BAY 11-7085 (dark bars) or DMSO (white bars) intraperitoneally twice weekly. The bars represent the 25-75% ranges of the tumor volumes and the horizontal lines in the bars are the medians. Using the Kruskal-Wallace statistical test to compare the median tumor volumes between BAY 11-7085 and DMSO yielded a p-value of 0.005 for HT-29 cells but >0.05 for HCT-116 cells.
(§2) HT-29 and HCT-116 cells were harvested in 0.25% trypsin-PBS-EDTA, washed once in media and PBS, and resuspended in PBS at 1 million cells per 200 μL. One million cells were injected either subcutaneously in the backs or intraperitoneally in 5 week old female nu/nu athymic mice (Charles River Labs). For the mice with subcutaneous tumors, the tumors were allowed to establish themselves for 10 days after which they were randomized to BAY 11-7085 or DMSO. For the mice with intraperitoneal tumors, the mice received DMSO or BAY 11-7085 (5 mg/kg) 24 hours before the cancer cells were injected intraperitoneally. […] Subcutaneous tumor sizes were determined by measuring the length and width with calipers. These studies were approved by the University of Utah Institutional Review Board and Institutional Animal Care and Use Committee and performed in the Animal Resource Center. Mice were euthanized when they experienced a greater than 10% loss in body weight or if they appeared ill. Post-mortem examinations included sectioning of kidney, lung, and liver tissues which were stained with hematoxylin and eosin followed by examination for tissue toxicity/damage by an experienced mouse pathologist (E.J.E.) who was blinded to therapy.
(§3) HCT-116 and HT-29 cell lines were used to generate subcutaneous tumors in athymic female mice. The mice were subsequently randomized to be treated with vehicle (DMSO) alone or BAY 11-7085 […] twice weekly for 28 days.

The subject of assay [2] is HT-29 xenografts. The assay is described as above. The assay is classed as in vivo, mouse. As to the method: as §1, §2, §3
The subject of assay [3] is 293-COX-2 cells. Put plainly: Apoptosis of 293-COX-2 cells with or without ponasterone induction of COX-2. It is filed as cell-based. The settings on record: 8 hours of exposure. As to the method:
The transiently suspended cells were lysed and allowed to bind to DNA oligonucleotides, containing the NF-κB consensus binding site, that were immobilized to 96-well plates. NF-κB protein bound to the oligonucleotides was detected by an antibody to the p65 subunit that only recognized p65 that is bound to DNA. The positive control was HeLa cells that were stimulated with TNFα. A control was performed using excess free NF-κB oligonucleotides (Competitor). […] NF-κB binding activity was determined by the TransAM assay as in FIG. 5A. […] The data shown represent typical results of three separate experiments. […] An immunoblot for COX-2 was performed.
DLD-1, HCT-116, and HT-29 colon cancer cell lines were obtained from the ATCC collection and were cultured in Dulbecco's Modification of Eagle's Medium (DMEM) supplemented with 10% fetal bovine serum, glutamine, penicillin, and streptomycin. […]
Single cell suspensions were plated at 100,000 cells per well in 24-well plates in media containing DMSO, BAY 11-7082, BAY 11-7085, or MG-132 for 8-24 hours in an incubator. […] 400 μL of binding buffer was added to each tube and the cells were analyzed by flow cytometry immediately. The percent of apoptosis was determined as the percent of annexin V-positive, propidium iodide-negative cells of the total cells counted. […]

Assay [4] relates to NF-κB in HT-29 cells. Put plainly: NF-κB ELISA during readhesion. The assay is classed as cell-based, human. The settings on record: colon and pancreatic cancer readhesion. An excerpt:
Untreated adherent monolayers (Control) and Jurkat cells treated with TNFα (Jurkat Control) served as controls. The cells were collected and analyzed for NF-κB activation in an ELISA (see Methods). […] The floating and readherent cells were collected and lysed. Aliquots of the cell lysates were used to generate cleaved PARP immunoblots. All lanes contain equal total protein concentrations and the actin blot served as a loading control. The blots shown are typical of duplicate experiments. […] The floating cells were washed away and the adherent cells were then fixed and stained with crystal violet. The cells were lysed in deoxycholate and the intensity of the staining quantified by spectrophotometry. The results are normalized to the controls.
Nuclear lysates were generated, normalized for total protein concentration, and used to determine NF-κB activity in an ELISA kit (Panomics) per the manufacturer's instructions.

Regarding `CC(C)(C)c1ccc(S(=O)(=O)/C=C/C#N)cc1` [BAY 11-7085, (2E)-3-[4-(tertiarybutylphenyl)sulfonyl]-2-propenenitrile], the “tumor volumes vs control group” value in assay [1] is given as “no statistically significant overall difference in the tumor volumes”; in assay [2] (HT-29 subcutaneous xenografts, BAY 11-7085 1 mg/kg twice weekly for 28 days vs DMSO) it was “statistically significant overall reduction in the tumor volumes”. For the same molecule, the “colon cancer xenograft growth” value in assay [2] (athymic mice, compound alone, cell line not given) is on record as “inhibit colon cancer xenograft growth”. In addition, the apoptosis entry in assay [3] (ponasterone-induced 293-COX-2 cells (1 μg/mL, 48 hours)) is recorded as “marked increase in BAY 11-7085-induced apoptosis”; in assay [3] (uninduced 293-COX-2 cells), “no increase in apoptosis”. The “NF-κB inhibitor potency on a molar basis (comparison)” value in assay [4] is on record as “more potent NF-κB inhibitor than rosiglitazone”.
